Test results from USRE47141E1, “Methods of treating fibrosis, cancer and vascular injuries” (EWHA University—Industry Collaboration Foundation, priority 2010, dated 2018).

Columns and labels:
[1] = test system: bleomycin (BLM)-treated mice; assay: Anti-fibrotic effect on bleomycin-induced lung fibrosis model; format: in vivo
[2] = test system: 4T1 cells; assay: Cell growth study (SRB assay), 4T1; format: cell-based; conditions: 0.2% serum medium, four days
Procedure: (§1) Either 4T1 cells or MCF10A cells were seeded in 96-well plate at 5×10^3 cells per well. […] After incubation for four days, cell viability was determined by SRB assay.

[3] = test system: bile duct-ligated (BDL) rats; assay: Anti-fibrotic effect on bile duct-ligated liver fibrosis model; format: in vivo; conditions: for Body weight / Organ weight Liver / Organ weight Liver/Body / Organ weight Spleen / Organ weight Spleen/Body: BDL rats, mean ± S.E.
[4] = target: CHK1 (Homo sapiens (Human), UniProt O14757); assay: Kinase selectivity profiling; format: biochemical
Procedure: (§2) Kinase assays were performed in 96-well FlashPlates™ from Perkin Elmer in a […]. […] The reaction cocktail contained 70 mM HEPES-NaOH, pH 7.5, 3 mM MnCl2, 3 μM Na3VO4, 1.2 mM DTT, 1 μM [γ-^33P]-ATP (approximately 6×10^5 cpm per well), protein kinase (variable amounts), and substrate (variable amounts). The reaction cocktails were incubated at 30° C. for 60 min. The reaction was stopped with 50 μL of 2% (v/v) H3PO4, and plates were aspirated and washed two times with 200 μL 0.9% (w/v) NaCl. ALL assays were performed with a BeckmanCoulter Biomek 2000/SL robotic system. Incorporation of ^33Pi (counting of “cpm”) was determined with a microplate scintillation counter.

[5] = target: STK23 (Homo sapiens (Human), UniProt Q9UPE1); assay: Kinase selectivity profiling; format: biochemical
Procedure: as §2

[6] = target: ALK2 (Homo sapiens (Human), UniProt Q04771); assay: Kinase selectivity profiling; format: biochemical
Procedure: as §2

[7] = target: ALK1 (Homo sapiens (Human), UniProt P37023); assay: Kinase selectivity profiling; format: biochemical
Procedure: as §2

[8] = target: VEGF-R1 (Homo sapiens (Human), UniProt P17948); assay: Kinase selectivity profiling; format: biochemical
Procedure: as §2

[9] = target: PDGFRα wt (Homo sapiens (Human), UniProt P16234); assay: Kinase selectivity profiling; format: biochemical
Procedure: as §2

[10] = target: PKA (Homo sapiens (Human), UniProt P17612); assay: Kinase selectivity profiling; format: biochemical
Procedure: as §2

[11] = target: PKCα (Homo sapiens (Human), UniProt P17252); assay: Kinase selectivity profiling; format: biochemical
Procedure: as §2

[12] = target: CDK1/CycA (Homo sapiens (Human), UniProt P06493); assay: Kinase selectivity profiling; format: biochemical
Procedure: as §2

[13] = target: DAPK1 (Homo sapiens (Human), UniProt P53355); assay: Kinase selectivity profiling; format: biochemical
Procedure: as §2

[14] = target: PAK1 (Homo sapiens (Human), UniProt Q13153); assay: Kinase selectivity profiling; format: biochemical
Procedure: as §2

[15] = target: MST1 (Homo sapiens (Human), UniProt Q13043); assay: Kinase selectivity profiling; format: biochemical
Procedure: as §2

[16] = target: ALK3 (Homo sapiens (Human), UniProt P36894); assay: Kinase selectivity profiling; format: biochemical
Procedure: as §2

[17] = target: AKT1 (Homo sapiens (Human), UniProt P31749); assay: Kinase selectivity profiling; format: biochemical
Procedure: as §2

[18] = target: PDGFRβ (Homo sapiens (Human), UniProt P09619); assay: Kinase selectivity profiling; format: biochemical
Procedure: as §2

[19] = target: MET wt (Homo sapiens (Human), UniProt P08581); assay: Kinase selectivity profiling; format: biochemical
Procedure: as §2

[20] = target: ERK1 (Homo sapiens (Human), UniProt P27361); assay: Kinase selectivity profiling; format: biochemical
Procedure: as §2

[21] = target: EGF-R wt (Homo sapiens (Human), UniProt P00533); assay: Kinase selectivity profiling; format: biochemical
Procedure: as §2

[22] = target: ROCK1 (Homo sapiens (Human), UniProt Q13464); assay: Kinase selectivity profiling; format: biochemical
Procedure: as §2

[23] = target: RPS6KA1 (Homo sapiens (Human), UniProt Q15418); assay: Kinase selectivity profiling; format: biochemical
Procedure: as §2

[24] = target: GSK3α (Homo sapiens (Human), UniProt P49840); assay: Kinase selectivity profiling; format: biochemical
Procedure: as §2

[25] = target: MEK1 wt (Homo sapiens (Human), UniProt Q02750); assay: Kinase selectivity profiling; format: biochemical
Procedure: as §2

[26] = target: VEGF-R3 (Homo sapiens (Human), UniProt P35916); assay: Kinase selectivity profiling; format: biochemical
Procedure: as §2

[27] = test system: MCF10A cells; assay: Cell growth study (SRB assay), MCF10A; format: cell-based; conditions: 0.2% serum medium, four days
Procedure: as §1

[28] = 5, 10, or 20 mg/kg orally five times per week for two weeks starting from day 7, Western blot
[29] = 5 mg/kg orally three times per week for four weeks
[30] = 10 mg/kg orally three times per week for four weeks
[31] = 20 mg/kg orally three times per week for four weeks
[32] = orally three times per week for four weeks, Example 2 5, 10, 20 mg/kg, Example 3 21.8, 43.6 mg/kg
[33] = orally three times per week for four weeks, Western blot
[34] = read-out: % inhibition at 1 μM, 1 μM
[35] = read-out: % inhibition at 10 μM, 10 μM

Sequence of AKT1 (P31749 whole entry, species assumed): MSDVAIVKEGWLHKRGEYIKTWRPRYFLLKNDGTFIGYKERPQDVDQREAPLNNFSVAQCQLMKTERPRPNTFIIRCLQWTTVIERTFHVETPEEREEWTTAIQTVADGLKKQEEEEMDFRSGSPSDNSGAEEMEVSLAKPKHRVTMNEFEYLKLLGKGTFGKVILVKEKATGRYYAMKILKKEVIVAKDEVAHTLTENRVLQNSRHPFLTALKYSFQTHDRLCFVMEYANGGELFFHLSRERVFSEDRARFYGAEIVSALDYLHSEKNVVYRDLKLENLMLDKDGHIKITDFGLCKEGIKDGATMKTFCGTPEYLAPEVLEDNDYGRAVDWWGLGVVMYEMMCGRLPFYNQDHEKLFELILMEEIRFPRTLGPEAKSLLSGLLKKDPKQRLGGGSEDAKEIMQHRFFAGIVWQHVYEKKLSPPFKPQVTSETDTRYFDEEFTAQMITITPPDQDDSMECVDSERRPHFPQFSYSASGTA
Sequence of MET wt (P08581 25-1390): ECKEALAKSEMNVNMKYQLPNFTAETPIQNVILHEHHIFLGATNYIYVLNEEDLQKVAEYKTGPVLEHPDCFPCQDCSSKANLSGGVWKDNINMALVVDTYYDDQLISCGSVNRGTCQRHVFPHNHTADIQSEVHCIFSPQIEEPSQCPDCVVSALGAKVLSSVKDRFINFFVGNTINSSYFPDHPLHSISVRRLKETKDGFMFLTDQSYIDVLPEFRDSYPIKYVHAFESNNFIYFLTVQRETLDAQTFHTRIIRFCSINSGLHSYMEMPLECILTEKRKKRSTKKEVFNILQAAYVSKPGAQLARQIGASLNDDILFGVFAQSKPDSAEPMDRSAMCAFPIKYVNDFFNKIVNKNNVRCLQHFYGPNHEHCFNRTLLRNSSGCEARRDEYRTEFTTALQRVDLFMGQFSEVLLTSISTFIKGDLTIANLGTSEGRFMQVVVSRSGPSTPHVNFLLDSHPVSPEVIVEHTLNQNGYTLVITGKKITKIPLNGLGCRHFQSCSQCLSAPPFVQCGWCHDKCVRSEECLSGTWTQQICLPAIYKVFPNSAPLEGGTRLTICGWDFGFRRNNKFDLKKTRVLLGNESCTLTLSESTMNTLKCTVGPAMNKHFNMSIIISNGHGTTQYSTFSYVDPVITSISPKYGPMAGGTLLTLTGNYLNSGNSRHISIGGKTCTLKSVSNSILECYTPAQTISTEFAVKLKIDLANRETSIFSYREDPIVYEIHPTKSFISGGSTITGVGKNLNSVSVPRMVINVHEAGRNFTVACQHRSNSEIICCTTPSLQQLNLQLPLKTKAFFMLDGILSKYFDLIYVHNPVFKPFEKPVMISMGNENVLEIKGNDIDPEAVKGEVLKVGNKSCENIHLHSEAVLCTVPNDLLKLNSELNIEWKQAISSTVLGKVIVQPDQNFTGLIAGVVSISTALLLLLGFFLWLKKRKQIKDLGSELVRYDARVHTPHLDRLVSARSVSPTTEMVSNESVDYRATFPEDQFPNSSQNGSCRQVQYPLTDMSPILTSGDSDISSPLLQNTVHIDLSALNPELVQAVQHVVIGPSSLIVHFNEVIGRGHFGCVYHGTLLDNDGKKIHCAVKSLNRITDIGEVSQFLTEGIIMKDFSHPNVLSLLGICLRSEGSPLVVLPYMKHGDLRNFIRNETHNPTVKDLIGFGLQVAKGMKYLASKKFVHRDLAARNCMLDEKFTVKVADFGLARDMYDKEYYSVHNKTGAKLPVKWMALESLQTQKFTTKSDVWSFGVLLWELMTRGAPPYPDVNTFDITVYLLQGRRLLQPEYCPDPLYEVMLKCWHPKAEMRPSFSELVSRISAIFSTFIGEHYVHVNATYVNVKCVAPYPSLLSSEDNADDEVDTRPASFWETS
Sequence of ERK1 (P27361 whole entry, species assumed): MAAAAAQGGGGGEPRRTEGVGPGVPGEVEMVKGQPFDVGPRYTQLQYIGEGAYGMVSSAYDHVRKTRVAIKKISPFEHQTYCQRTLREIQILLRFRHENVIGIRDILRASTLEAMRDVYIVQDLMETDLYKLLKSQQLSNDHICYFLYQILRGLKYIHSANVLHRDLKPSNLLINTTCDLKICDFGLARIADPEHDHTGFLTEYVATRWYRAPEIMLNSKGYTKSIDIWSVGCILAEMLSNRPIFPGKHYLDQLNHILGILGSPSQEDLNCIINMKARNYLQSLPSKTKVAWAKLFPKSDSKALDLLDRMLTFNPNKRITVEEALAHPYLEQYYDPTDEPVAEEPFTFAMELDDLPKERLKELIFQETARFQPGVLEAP
Sequence of MST1 (Q13043 whole entry): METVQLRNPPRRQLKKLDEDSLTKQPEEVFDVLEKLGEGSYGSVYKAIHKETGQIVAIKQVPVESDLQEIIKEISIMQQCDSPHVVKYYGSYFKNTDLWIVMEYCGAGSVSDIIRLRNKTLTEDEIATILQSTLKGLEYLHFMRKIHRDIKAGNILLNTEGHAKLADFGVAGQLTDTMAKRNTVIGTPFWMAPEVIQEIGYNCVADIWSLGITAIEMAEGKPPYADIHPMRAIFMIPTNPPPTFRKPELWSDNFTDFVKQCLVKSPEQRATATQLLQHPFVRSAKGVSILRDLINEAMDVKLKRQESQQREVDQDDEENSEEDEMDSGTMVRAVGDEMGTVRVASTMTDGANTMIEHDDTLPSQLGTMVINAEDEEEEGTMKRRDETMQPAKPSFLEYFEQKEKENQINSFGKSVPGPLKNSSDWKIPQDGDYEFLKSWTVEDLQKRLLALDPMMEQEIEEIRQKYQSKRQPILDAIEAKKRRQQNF
Sequence of ALK1 (P37023 22-503, species assumed): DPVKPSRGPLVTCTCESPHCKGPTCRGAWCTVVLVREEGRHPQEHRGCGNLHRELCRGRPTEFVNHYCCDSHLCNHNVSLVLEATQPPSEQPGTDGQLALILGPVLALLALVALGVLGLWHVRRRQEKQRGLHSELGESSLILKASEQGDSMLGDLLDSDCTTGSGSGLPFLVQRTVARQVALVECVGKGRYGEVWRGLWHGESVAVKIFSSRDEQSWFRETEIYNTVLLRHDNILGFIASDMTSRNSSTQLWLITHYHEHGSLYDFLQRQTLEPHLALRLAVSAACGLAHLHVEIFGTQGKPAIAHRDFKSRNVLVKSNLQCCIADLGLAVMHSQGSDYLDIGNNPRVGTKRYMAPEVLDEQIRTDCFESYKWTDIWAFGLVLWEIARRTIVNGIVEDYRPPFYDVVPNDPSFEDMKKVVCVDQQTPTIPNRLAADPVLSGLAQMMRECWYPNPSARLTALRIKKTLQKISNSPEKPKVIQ
Sequence of ALK2 (Q04771 21-509, species assumed): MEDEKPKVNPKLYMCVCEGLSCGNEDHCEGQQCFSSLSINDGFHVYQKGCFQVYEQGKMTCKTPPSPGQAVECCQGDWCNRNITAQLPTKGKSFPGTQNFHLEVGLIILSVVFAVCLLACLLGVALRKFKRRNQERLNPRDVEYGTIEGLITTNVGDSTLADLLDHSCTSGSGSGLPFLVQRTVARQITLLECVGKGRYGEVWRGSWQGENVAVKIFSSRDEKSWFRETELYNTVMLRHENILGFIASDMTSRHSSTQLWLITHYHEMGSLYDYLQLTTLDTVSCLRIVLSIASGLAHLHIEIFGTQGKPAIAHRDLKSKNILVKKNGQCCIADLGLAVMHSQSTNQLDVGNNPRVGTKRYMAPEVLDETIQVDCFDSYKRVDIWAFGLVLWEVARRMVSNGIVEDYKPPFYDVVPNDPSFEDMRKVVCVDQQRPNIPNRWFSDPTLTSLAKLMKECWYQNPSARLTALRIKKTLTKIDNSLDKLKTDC
Sequence of GSK3α (P49840 whole entry, species assumed): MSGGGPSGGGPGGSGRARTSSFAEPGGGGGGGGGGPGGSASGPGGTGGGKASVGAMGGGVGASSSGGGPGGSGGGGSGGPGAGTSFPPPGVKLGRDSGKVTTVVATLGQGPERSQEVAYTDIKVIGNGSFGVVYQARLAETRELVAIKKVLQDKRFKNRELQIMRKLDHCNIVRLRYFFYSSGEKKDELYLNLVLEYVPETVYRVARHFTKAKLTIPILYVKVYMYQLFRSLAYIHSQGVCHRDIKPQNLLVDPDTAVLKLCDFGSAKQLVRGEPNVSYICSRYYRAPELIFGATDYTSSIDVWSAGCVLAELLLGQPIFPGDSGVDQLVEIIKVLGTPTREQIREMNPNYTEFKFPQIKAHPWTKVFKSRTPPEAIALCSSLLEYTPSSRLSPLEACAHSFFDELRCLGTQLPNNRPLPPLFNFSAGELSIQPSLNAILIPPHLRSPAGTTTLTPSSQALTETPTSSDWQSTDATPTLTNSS
Sequence of MEK1 wt (Q02750 whole entry): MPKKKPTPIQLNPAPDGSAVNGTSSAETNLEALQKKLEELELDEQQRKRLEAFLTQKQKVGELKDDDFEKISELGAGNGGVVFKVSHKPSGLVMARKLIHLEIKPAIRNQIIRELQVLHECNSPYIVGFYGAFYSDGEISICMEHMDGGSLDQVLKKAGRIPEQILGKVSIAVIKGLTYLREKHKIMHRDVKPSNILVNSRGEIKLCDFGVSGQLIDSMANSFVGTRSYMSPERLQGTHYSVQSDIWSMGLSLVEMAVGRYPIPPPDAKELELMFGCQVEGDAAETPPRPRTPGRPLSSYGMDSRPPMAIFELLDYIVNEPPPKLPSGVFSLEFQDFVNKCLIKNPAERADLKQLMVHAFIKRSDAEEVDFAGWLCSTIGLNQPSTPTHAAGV

In the case of `Cc1cccc(-c2[nH]c(CNc3ccccc3F)nc2-c2ccc3ncnn3c2)n1` [Example 2, N-((4-([1,2,4]triazolo[1,5-a]pyridin-6-yl)-5-(6-methylpyridin-2-yl)-1H-imidazol-2-yl)methyl)-2-fluoroaniline], the “fibronectin in BLM-induced fibrotic lung” value [1, 28] is reported as “suppressed”, the “α-SMA in BLM-induced fibrotic lung” value [1, 28] is reported as “suppressed” and the BLM-induced histological changes ([1]; all dose levels tested (5, 10, 20 mg/kg orally), lung, H&E staining) is reported as “greatly reduced”. For the same compound, the 4T1 cell growth [2] was “no effect”, the Body weight [3, 29] was 324 ± 7.3 g and the “Organ weight Liver” value [3, 29] was 17.5 ± 1.82 g. The “Organ weight Liver/Body” value [3, 29] was 5.46 ± 0.62%, the “Organ weight Spleen” value [3, 29] was 2.00 ± 0.28 g and the “Organ weight Spleen/Body” value [3, 29] was 0.63 ± 0.09 %. The Body weight [3, 30] was 312 ± 10.4 g, the “Organ weight Liver” value [3, 30] was 15.8 ± 1.88 g and the “Organ weight Liver/Body” value [3, 30] was 5.08 ± 0.60%. The “Organ weight Spleen” value [3, 30] was 1.57 ± 0.12 g, the “Organ weight Spleen/Body” value [3, 30] was 0.51 ± 0.05 % and the Body weight [3, 31] was 312 ± 8.4 g. For the same compound, the “Organ weight Liver” value [3, 31] was 15.2 ± 1.80 g, the “Organ weight Liver/Body” value [3, 31] was 4.88 ± 0.63% and the “Organ weight Spleen” value [3, 31] was 1.50 ± 0.16 g. For the same compound, the “Organ weight Spleen/Body” value [3, 31] was 0.48 ± 0.05 %, the BDL-induced histological change ([3]; liver, H&E staining) was “greatly abolished” and the “body weight loss in BDL rats” value [3, 32] was “recovered”. The “organ (liver and spleen) weight in BDL rats” value [3, 32] was “decreased”, the “serum ALT in BDL rats” value [3, 32] was “improved” and the “serum AST in BDL rats” value [3, 32] was “improved”. The “fibronectin in BDL rat liver” value [3, 33] was “suppressed”, the “α-SMA in BDL rat liver” value [3, 33] was “suppressed” and the inhibition at 1 µM [4, 34] was -2%. The inhibition at 10 µM [4, 35] was 5%, the inhibition at 1 µM [5, 34] was -4% and the inhibition at 10 µM [5, 35] was -1%. It also gave an inhibition at 1 µM [6, 34] of 17%, an inhibition at 10 µM [6, 35] of 71% and an inhibition at 1 µM [7, 34] of 20%. For the same compound, the inhibition at 10 µM [7, 35] was 66%, the IC50 [8] was 391 nM and the inhibition at 1 µM [9, 34] was 53%. For the same compound, the inhibition at 10 µM [9, 35] was 91%, the inhibition at 1 µM [10, 34] was -7% and the inhibition at 10 µM [10, 35] was 18%. It also gave an inhibition at 1 µM [11, 34] of -9%, an inhibition at 10 µM [11, 35] of 4% and an inhibition at 1 µM [12, 34] of 5%. The inhibition at 10 µM [12, 35] was 2%, the inhibition at 1 µM [13, 34] was 5% and the inhibition at 10 µM [13, 35] was 11%. The inhibition at 1 µM [14, 34] was -7%, the inhibition at 10 µM [14, 35] was -3% and the inhibition at 1 µM [15, 34] was -7%. The inhibition at 10 µM [15, 35] was 3%, the inhibition at 1 µM [16, 34] was -6% and the inhibition at 10 µM [16, 35] was 27%. The inhibition at 1 µM [17, 34] was 0%, the inhibition at 10 µM [17, 35] was 3% and the inhibition at 1 µM [18, 34] was 47%. It also gave an inhibition at 10 µM [18, 35] of 87%, an inhibition at 1 µM [19, 34] of -5% and an inhibition at 10 µM [19, 35] of 12%. The inhibition at 1 µM [20, 34] was 17%, the inhibition at 10 µM [20, 35] was 66% and the inhibition at 1 µM [21, 34] was -8%. For the same compound, the inhibition at 10 µM [21, 35] was 43%, the inhibition at 1 µM [22, 34] was 3% and the inhibition at 10 µM [22, 35] was 9%. The inhibition at 1 µM [23, 34] was 6%, the inhibition at 10 µM [23, 35] was 14% and the inhibition at 1 µM [24, 34] was 10%. For the same compound, the inhibition at 10 µM [24, 35] was 15%, the inhibition at 1 µM [25, 34] was 14% and the inhibition at 10 µM [25, 35] was 47%. The IC50 [26] was 257 nM and the MCF10A cell growth [27] was “slightly increased”.
